Type in all cases: cell-based
The test system of assay [1] is NCI-H82 (human small cell lung cancer cell). As to the kind of experiment: Cell viability (CellTiter-Glo), NCI-H82. The note with it: sensitive group, 3-4 days of culture, n=3, read-out: Tigecycline IC50. The method, then:
(§1) The inhibitory effect of tigecycline on various tumor cell lines was detected using cell activity detection reagent.
(§2) Cell viability was detected using the Promega CellTiter-Glo kit, cell viability was determined by directly measuring intracellular ATP content. In the experiment, the IC50 value of tigecycline on various tumor cell lines was determined.
(§3) Each tumor cell was cultured separately in relevant medium (+p/s), and was incubated for 3 h, then the gradient diluted tigecycline was added. After 3-4 days of culture, the relevant IC50 (50% inhibiting concentration) was measured (n=3). The name, source and culture conditions of each tumor cell line were as follows:
Cell line NCI-H82 (ATCC, No. HTB-175) was cultured in 10% fetal bovine serum-containing RPMI1640 medium (+P/S).
On the technique in general: ATP-based viability assays read luminescence as a measure of living cells.

In assay [2] the test system is WSU-DLCL2 (human diffuse large B-cell lymphoma). As to the kind of experiment: Cell viability (CellTiter-Glo), WSU-DLCL2. The note with it: WSUDLCL2, sensitive group, 3-4 days of culture, n=3, read-out: Tigecycline IC50. The method, then: as §1, §2, §3
Cell line WSU-DLCL2 (DSMZ, No. ACC-575) was cultured in 10% fetal bovine serum-containing RPMI1640 medium (+P/S).

For assay [3], the system named is 786-O (clear cell renal cell adenocarcinoma cell). Put plainly: Cell viability (CellTiter-Glo), 786-O. The note with it: Homo sapiens, 786-0, insensitive group, 3-4 days of culture, n=3, read-out: Tigecycline IC50. Here is the method: as §1, §2, §3
Cell line 786-0 (ATCC, No. CRL-1932) was cultured in 10% fetal bovine serum-containing RPMI1640 medium (+P/S).

Assay [4] concerns MDA-MB-453 (breast cancer cell). As to the kind of experiment: Cell viability (CellTiter-Glo), MDA-MB-453. The note with it: Homo sapiens, sensitive group, 3-4 days of culture, n=3, read-out: Tigecycline IC50. The method, then:
as §1, §2, §3
Cell line MDA-MB-453 (ATCC, No. HTB-131) was cultured in 10% fetal bovine serum-containing Leibovitz's L-15 medium (+P/S).

Assay [5] has as its system GB-1 (human glioblastoma cell). As to the kind of experiment: Cell viability (CellTiter-Glo), GB-1. The note with it: insensitive group, 3-4 days of culture, n=3, read-out: Tigecycline IC50. Here is the method:
as §1, §2, §3
Cell line GB-1 (JCRB, No. IFO050489) was cultured in 10% fetal bovine serum-containing DMEM medium (+P/S).

Assay [6] concerns G-401 (human renal carcinoma Wilms cell). As to the kind of experiment: Cell viability (CellTiter-Glo), G-401. The note with it: sensitive group, 3-4 days of culture, n=3, read-out: Tigecycline IC50. Here is the method:
as §1, §2, §3
Cell line G-401 (ATCC, No. CRL-1441) was cultured in 10% fetal bovine serum-containing McCoy's 5a medium (+P/S).

Assay [7] relates to SF-126 (human glioblastoma multiforme cell). Put plainly: Cell viability (CellTiter-Glo), SF-126. The note with it: insensitive group, 3-4 days of culture, n=3, read-out: Tigecycline IC50. Here is the method:
as §1, §2, §3
Cell line SF126 (JCRB. No. IFO50286) was cultured in 10% fetal bovine serum-containing EMEM medium (+P/S).

Assay [8] deals with NCI-H82 (ov-NNMT) cell (NNMT protein-overexpressing). As to the kind of experiment: Cell viability (CellTiter-Glo), NNMT-overexpressing NCI-H82. The note with it: Homo sapiens, NNMT gene inserted by viral vector, n=3, read-out: IC50 value of tigecycline on NNMT protein-overexpressing NCI-H82 cell (NCI-H82 (ov-NNMT)). The source says:
(§4) The NNMT protein-overexpressing NCI-H82 cell (NCI-H82 (ov-NNMT)) was obtained by inserting the NNMT gene into NCI-H82 cell using a viral vector. The control NCI-H82 cell (NCI-H82 (Con)) was obtained by transfecting NCI-H82 cell with empty virus vector without carrying NNMT gene.
(§5) The expressing level of NNMT protein in control NCI-H82 cell (NCI-H82 (Con)) and NNMT protein-overexpressing NCI-H82 cell (NCI-H82 (ov-NNMT)) was detected using Western Blot assay (as shown in FIG. 7), it could be seen from FIG. 7 that the NNMT protein in NCI-H82 (ov-NNMT) cell was overexpressed compared with the expression level of NNMT protein in NCI-H82 (Con) cell.
(§6) The IC50 value of tigecycline on control NCI-H82 cell (NCI-H82 (Con)) and NNMT protein-overexpressing NCI-H82 cell (NCI-H82 (ov-NNMT)) was determined using Promega CellTiter-Glo kit which detected cell viability by directly measuring intracellular ATP content (n=3), the experiment result was shown in Table 4 below: […]

The test system of assay [9] is NCI-H82 (Con) cell (transfected with empty virus vector). As to the kind of experiment: Cell viability (CellTiter-Glo), control NCI-H82 (Con). The note with it: Homo sapiens, n=3, read-out: IC50 value of tigecycline on control NCI-H82 cell (NCI-H82 (Con)).
Excerpt: as §4, §5, §6

In assay [10] the test system is SW48 (human colon adenocarcinoma cell). As to the kind of experiment: Cell viability (CellTiter-Glo), SW48. The note with it: sensitive group, 3-4 days of culture, n=3, read-out: Tigecycline IC50. The method, then: as §1, §2, §3
Cell line SW48 (ATCC, No. CCL-231) was cultured in 10% fetal bovine serum-containing Leibovitz's L-15 medium (+P/S).

The subject of assay [11] is CFPAC-1 (human pancreatic cancer cell). Put plainly: Cell viability (CellTiter-Glo), CFPAC-1. The note with it: insensitive group, 3-4 days of culture, n=3, read-out: Tigecycline IC50. Here is the method: as §1, §2, §3
Cell line CFPAC-1 (ATCC, No. CRL-1918) was cultured in 10% fetal bovine serum-containing IMDM medium (+P/S).

pIC50: −log10 of the molar value.

Usually pIC50 stands for the negative decadic logarithm of the IC50, by convention in mol/L. Consider `CN(C)c1cc(NC(=O)CNC(C)(C)C)c(O)c2c1C[C@H]1C[C@H]3[C@H](N(C)C)C(O)=C(C(N)=O)C(=O)[C@@]3(O)C(O)=C1C2=O` [Tigecycline, tigecycline], for which the negative-log IC50 (pIC50) was 6.10 in assay [1]; 5.87 in assay [2]; 4.57 in assay [3]; 5.30 in assay [4]; 4.73 in [5]; 5.39 in assay [6]. Moreover, the negative logarithm of the IC50 (pIC50) is 4.58 in assay [7]; 5.64 in [8]; 6.12 in assay [9]; 5.20 in assay [10]; 4.61 in [11].

Source of the values: patent US20250268923A1, “APPLICATION OF TETRACYCLINE COMPOUND IN TREATMENT OF TUMOR” (NANJING SHIJIANG MEDICINE TECHNOLOGY CO., LTD, priority 2021, published 2025).
